# Experiments:
# [1] = tested on: bermudagrass; test: Test C pre-/postemergence herbicide test; format: in vivo, Cynodon dactylon; details: for Bermudagrass plant response rating: 500 g ai/ha
# Procedure, shortened: (§1)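 Visual injury scores run from 0 (no effect) to 100 (complete control), assessed relative to untreated controls 12 to 14 days after treatment in the greenhouse. Chemicals were formulated in a non-phytotoxic solvent mixture with surfactant and applied to soil after planting or to emerged plants at the 1- to 4-leaf stage.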
# [2] = tested on: barnyardgrass; test: Test A pre-/postemergence herbicide test; format: in vivo, Echinochloa crus-galli
# Procedure, shortened: (§2)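 Pre: seeded sandy loam, directed soil spray, compound in non-phytotoxic solvent + surfactant. Post: 1–2-leaf plants (2–10 cm), sprayed to runoff. Greenhouse ~10 d; visual injury vs untreated, 0–100 scale.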
# [3] = tested on: redroot pigweed; test: Test A pre-/postemergence herbicide test; format: in vivo, Amaranthus retroflexus
# Procedure, shortened: as §2
# [4] = tested on: lambsquarters; test: Test C pre-/postemergence herbicide test; format: in vivo, Chenopodium album
# Procedure, shortened: as §1
# [5] = tested on: velvetleaf; test: Test C pre-/postemergence herbicide test; format: in vivo, Abutilon theophrasti; details: for Velvetleaf plant response rating: 500 g ai/ha
# Procedure, shortened: as §1
# [6] = tested on: morningglory; test: Test A pre-/postemergence herbicide test; format: in vivo, Ipomoea spp.
# Procedure, shortened: as §2
# [7] = tested on: morningglory; test: Test C pre-/postemergence herbicide test; format: in vivo, Ipomoea coccinea; design: key to Plant response rating, Morningglory: 0 = no effect, 100 = complete control; details: for Morningglory plant response rating: 500 g ai/ha
# Procedure, shortened: as §1
# [8] = tested on: common ragweed; test: Test C pre-/postemergence herbicide test; format: in vivo, Ambrosia elatior; design: key to Plant response rating, Ragweed: 0 = no effect, 100 = complete control; details: for Ragweed plant response rating: 500 g ai/ha
# Procedure, shortened: as §1
# [9] = tested on: rice; test: Test C flooded paddy test; format: in vivo, Oryza sativa
# Procedure, shortened: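 Postemergence sprays applied to plants 2 to 18 cm tall (1- to 4-leaf stage); paddy species grown to 2-leaf stage under flooding. After 12 to 14 days in greenhouse, visual rating versus untreated controls on 0–100 scale (0 no effect, 100 complete control).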
# [10] = tested on: smallflower umbrella sedge; test: Test C flooded paddy test; format: in vivo, Cyperus difformis
# [11] = tested on: large crabgrass; test: Test C pre-/postemergence herbicide test; format: in vivo, Digitaria sanguinalis; details: for Crabgrass, Large plant response rating: 500 g ai/ha
# Procedure, shortened: as §1
# [12] = tested on: giant foxtail; test: Test C pre-/postemergence herbicide test; format: in vivo, Setaria faberi; details: for Foxtail, Giant plant response rating: 500 g ai/ha
# Procedure, shortened: as §1
# [13] = 125 g ai/ha, scale 0 (no effect) to 100 (complete control), visual, 12 to 14 days, preemergence
# [14] = 250 g ai/ha, scale 0 to 100 (0 no effect, 100 complete control), visual, 12 to 14 days, preemergence
# [15] = Postemergence, 250 g ai/ha, scale 0 to 100, 0 no effect, 100 complete control
# [16] = Preemergence, scale 0 to 100, 0 no effect, 100 complete control
# [17] = postemergence, 125 g ai/ha, scale 0 to 100
# [18] = postemergence, 62 g ai/ha, scale 0 to 100
# [19] = Postemergence, 500 g ai/ha, 0 to 100 scale, 0 no effect, 100 complete control
# [20] = Postemergence, 2000 g ai/ha, 0 to 100 scale, 0 no effect, 100 complete control
# [21] = Preemergence, 500 g ai/ha, visual rating, 0 to 100 scale (0 no effect, 100 complete control)
# [22] = Preemergence, 2000 g ai/ha, 0 to 100 scale, 0 no effect, 100 complete control
# [23] = 62 g ai/ha, scale 0 to 100 (0 no effect, 100 complete control)
# [24] = 125 g ai/ha, scale of 0 to 100, 0 is no effect, 100 is complete control
# [25] = 250 g ai/ha, scale of 0 to 100, 0 is no effect, 100 is complete control
# [26] = 500 g ai/ha, visual rating after 12 to 14 days, scale 0 to 100 (0 no effect, 100 complete control)
compound,measurement,setting,value
CCOC(=O)c1cc(NC(=O)c2cc(C(C)(C)C)nn2CC)ccc1OC [Compound 96],"Plant response rating (0 = no effect, 100 = complete control), Bermudagrass","[1]; 62 g ai/ha, preemergence",40
same,"Plant response rating, Bermudagrass",[1]; [13],80
same,"Plant response rating, Bermudagrass",[1]; [14],85
same,Bermudagrass plant response rating,"[1]; Postemergence, scale 0 to 100",5
same,"Plant response rating, Bermudagrass",[1]; [15],5
same,Bermudagrass plant response rating,[1]; [16],100
same,"Plant response rating, Bermudagrass",[1]; [17],0
same,"Plant response rating, Bermudagrass",[1]; [18],0
same,Barnyardgrass plant response rating,[2]; [19],60
same,"Plant response rating, Barnyardgrass",[2]; [20],80
same,Barnyardgrass plant response rating,[2]; [21],70
same,Barnyardgrass plant response rating,[2]; [22],90
same,Pigweed plant response rating,[3]; [19],95
same,"Plant response rating, Pigweed",[3]; [20],100
same,Pigweed plant response rating,[3]; [21],100
same,Pigweed plant response rating,[3]; [22],100
same,Lambsquarters plant response rating,"[4]; Postemergence, 500 g ai/ha, scale 0 to 100",100
same,"Plant response rating, Lambsquarters",[4]; [15],95
same,"Plant response rating, Lambsquarters",[4]; [17],80
same,"Plant response rating, Lambsquarters",[4]; [18],60
same,"Plant response rating, Velvetleaf",[5]; [13],50
same,Velvetleaf plant response rating,"[5]; Postemergence, scale 0 to 100",95
same,"Plant response rating, Velvetleaf",[5]; [15],70
same,Velvetleaf plant response rating,[5]; [16],100
same,"Plant response rating, Velvetleaf",[5]; [17],70
same,"Plant response rating, Velvetleaf",[5]; [18],40
same,Morningglory plant response rating,[6]; [19],10
same,"Plant response rating, Morningglory",[6]; [20],15
same,Morningglory plant response rating,[6]; [21],25
same,Morningglory plant response rating,[6]; [22],70
same,"Plant response rating (0 = no effect, 100 = complete control), Morningglory","[7]; 62 g ai/ha, preemergence",0
same,"Plant response rating, Morningglory",[7]; [13],50
same,Morningglory plant response rating,"[7]; Postemergence, scale 0 to 100",50
same,"Plant response rating, Morningglory",[7]; [15],30
same,Morningglory plant response rating,[7]; [16],100
same,"Plant response rating, Morningglory",[7]; [17],5
same,"Plant response rating, Morningglory",[7]; [18],0
same,"Plant response rating (0 = no effect, 100 = complete control), Ragweed","[8]; 62 g ai/ha, preemergence",50
same,"Plant response rating, Ragweed",[8]; [13],90
same,Ragweed plant response rating,"[8]; Postemergence, scale 0 to 100",85
same,"Plant response rating, Ragweed",[8]; [15],80
same,Ragweed plant response rating,[8]; [16],100
same,"Plant response rating, Ragweed",[8]; [17],50
same,"Plant response rating, Ragweed",[8]; [18],50
same,Rice plant response rating,[9]; [23],40
same,Rice plant response rating,[9]; [24],45
same,Rice plant response rating,[9]; [25],70
same,"Plant response rating, Rice",[9]; [26],75
same,"Sedge, Umbrella plant response rating",[10]; [23],90
same,"Sedge, Umbrella plant response rating",[10]; [24],90
same,"Sedge, Umbrella plant response rating",[10]; [25],90
same,"Plant response rating, Sedge, Umbrella",[10]; [26],95
same,"Plant response rating (0 = no effect, 100 = complete control), Crabgrass, Large","[11]; 62 g ai/ha, preemergence",85
same,"Plant response rating, Crabgrass, Large",[11]; [13],100
same,"Plant response rating, Crabgrass, Large",[11]; [14],100
same,"Crabgrass, Large plant response rating","[11]; Postemergence, scale 0 to 100",5
same,"Plant response rating, Crabgrass, Large",[11]; [15],5
same,"Crabgrass, Large plant response rating",[11]; [16],100
same,"Plant response rating, Crabgrass, Large",[11]; [17],0
same,"Plant response rating, Crabgrass, Large",[11]; [18],0
same,"Plant response rating (0 = no effect, 100 = complete control), Foxtail, Giant","[12]; 62 g ai/ha, preemergence",70
same,"Plant response rating, Foxtail, Giant",[12]; [13],100
same,"Plant response rating, Foxtail, Giant",[12]; [14],100
same,"Foxtail, Giant plant response rating","[12]; Postemergence, scale 0 to 100",60
same,"Plant response rating, Foxtail, Giant",[12]; [15],45
same,"Foxtail, Giant plant response rating",[12]; [16],100
same,"Plant response rating, Foxtail, Giant",[12]; [17],20
same,"Plant response rating, Foxtail, Giant",[12]; [18],10
